Measurements reported in ChEMBL document CHEMBL1123271, “Selective monoamine oxidase inhibitors. 4. 4-Aminophenethylamine derivatives with neuron-selective action” (J Med Chem, 1986).

Key:
Rattus norvegicus [1] = assay: Compound was tested for the behavioral changes in reserpinized rats that indicates the release of norepinephrine (reversal of ptosis) by subcuteneous administration; type: functional
Rattus norvegicus [2] = species: Rattus norvegicus; assay: Compound was tested for its ability to inhibit dopamine uptake; type: functional, organism-based
Rattus norvegicus [3] = assay: Compound was tested for the behavioral changes in reserpinized rats that indicates the release of dopamine by subcuteneous administration; type: functional
Rattus norvegicus [4] = species: Rattus norvegicus; assay: Determined from log concentration-inhibition curves using rat brain mitochondrial preparation as enzyme and phenethylamine (PEA) as a substrate; type: functional
Rattus norvegicus [5] = assay: Compound was tested for the behavioral changes in reserpinized rats that indicates the release of serotonin (5-HT syndrome) by subcuteneous administration; type: functional
Rattus norvegicus [6] = species: Rattus norvegicus; assay: Determined from log concentration-inhibition curves using rat brain mitochondrial preparation as enzyme and [14C]5-HT (5-HT) as a substrate; type: functional
Rattus norvegicus [7] = species: Rattus norvegicus; assay: Compound was tested for its ability to inhibit serotonin uptake; type: functional, organism-based
Rattus norvegicus [8] = species: Rattus norvegicus; assay: Compound was tested for its ability to inhibit norepinephrine uptake; type: functional, organism-based
[9] = Ratio (PEA/5-HT) of the compound; type: functional
[10] = Ratio between inhibition of outside NE neurons to that of inside NE neurons; type: functional
[11] = Ratio between inhibition of outside 5-HT neurons to that of inside 5-HT neurons; type: functional
[12] = Ratio between inhibition of outside DA neurons to that of inside DA neurons; type: functional
Rattus norvegicus [13] = species: Rattus norvegicus; assay: Compound was tested for its ability to inhibit norepinephrine uptake.; type: functional, organism-based

| SMILES | Least dose (Rattus norvegicus [1]) [mg/kg] | IC50 (Rattus norvegicus [2]) [µM] | Least dose (Rattus norvegicus [3]) [mg/kg] | IC50 (Rattus norvegicus [4]) [µM] | Least dose (Rattus norvegicus [5]) [mg/kg] | IC50 (Rattus norvegicus [6]) [µM] | IC50 (Rattus norvegicus [7]) [µM] | IC50 (Rattus norvegicus [8]) [µM] | Ratio [9] | Ratio [10] | Ratio [11] | Ratio [12] | IC50 (Rattus norvegicus [13]) [µM] |
| --- | --- | --- | --- | --- | --- | --- | --- | --- | --- | --- | --- | --- | --- |
| CCc1cc(N)ccc1CC(C)N (centres undefined) | >269 | 20 | >269 | 1200 | >269 | 60 | 10 | 2 |  |  |  |  |  |
| CC(N)Cc1ccc(N)cc1F (centres undefined) | 17 | 0.42 | 35 | 800 | 140 | 0.75 | 1.3 | 0.05 | 1070 | 71 | 9 | 23 |  |
| Cc1cc(N)ccc1CC(C)N (centres undefined) | 270 | 11 | >270 | 2500 | 270 | 1.6 | 9 | 0.32 | 1560 | >12 | >>5 | 9.7 |  |
| CC(C)(N)Cc1ccc(N)cc1F | 264 | 1.6 | 264 | 2800 | >264 | 6 | 27 | 0.32 | 467 | >2 | 1.6 | 4.1 |  |
| Cc1cc(N)ccc1CC(C)(C)N | >269 | 40 | >269 | 1500 | >269 | 20 | 2.6 | 0.36 | 75 |  | >1 |  |  |
| CC(N)Cc1ccc(N)cc1 (centres undefined) | 72 | 0.16 | 72 | 7000 | 276 | 6.8 | 20 | 0.07 | 1030 | >10 | >>5 | 19 |  |
| CC(N)Cc1c(Cl)cc(N)cc1Cl (centres undefined) | 115 | 30 | 229 | 340 | >229 | 0.012 | 30 | 2.2 | 28300 | 2.2 | 1 | 1.5 |  |
| CC(C)(N)Cc1ccc(N)cc1Cl | 247 | 15 | >247 | 1700 | >247 | 1.3 | 5.5 |  | 1310 | 4.5 | 6 | 2.5 | 0.6 |
| Cc1cc(N)c(Br)cc1CC(C)N (centres undefined) | 211 | 2 | >211 | 290 | 211 | 1.5 | 6.5 | 0.55 | 193 | >4 | >2 | 2.1 |  |
| CC(N)Cc1ccc(N)cc1Cl (centres undefined) | 16 | 0.07 | >131 | 750 | 33 | 0.27 | 3 | 0.19 | 2780 | >70 | 20 | 3.3 |  |
